# Measurements: the supplement of paper PMC10307832
# Experiments:
# Experiment in all cases: relative viability (nuclei count vs DMSO), 5 days (fraction); higher = more cells survive
# UMC-11 = test system: UMC-11
# In short: (§1)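 Medians of duplicate plates are given as relative viability. That measure is the nuclei count in treated wells divided by the count in vehicle wells. Counts were taken on 4× images of lung cancer cell lines in 1536-well plates, 5 days after pin-tool dosing the day after seeding with one drug alone or a fixed anchor-drug dose plus five library-drug doses (not always all listed) in √10 steps.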
# NCI-H1666 = test system: NCI-H1666
# In short: as §1
# LXF-289 = test system: LXF-289
# In short: as §1
# NCI-H1651 = test system: NCI-H1651
# In short: as §1
# PC-3 [JPC-3] = test system: PC-3 [JPC-3]
# In short: as §1
# LU99A = test system: LU99A
# In short: as §1
# HCC-15 = test system: HCC-15
# In short: as §1
# BEN = test system: BEN
# In short: as §1
# NCI-H838 = test system: NCI-H838
# In short: as §1
# SK-MES-1 = test system: SK-MES-1
# In short: as §1
smiles,measurement,setting,value
NC(=O)Nc1cc(-c2cccc(F)c2)sc1C(=O)N[C@H]1CCCNC1 [AZD7762] + CC1(C)CCC(c2ccc(Cl)cc2)=C(CN2CCN(c3ccc(C(=O)NS(=O)(=O)c4ccc(N[C@H](CCN5CCOCC5)CSc5ccccc5)c(S(=O)(=O)C(F)(F)F)c4)cc3)CC2)C1 [Navitoclax] (partner 0.5 µM),relative viability,UMC-11; first compound 0.01 µM,0.312
same,relative viability,UMC-11; first compound 0.03162 µM,0.32
same,relative viability,UMC-11; first compound 0.1 µM,0.272
same,relative viability,UMC-11; first compound 0.3162 µM,0.307
same,relative viability,UMC-11; first compound 1 µM,0.21
same,relative viability,NCI-H1666; first compound 0.01 µM,1.24
same,relative viability,NCI-H1666; first compound 0.03162 µM,1.36
same,relative viability,NCI-H1666; first compound 0.1 µM,1.23
same,relative viability,NCI-H1666; first compound 0.3162 µM,0.797
same,relative viability,NCI-H1666; first compound 1 µM,0.661
same,relative viability,LXF-289; first compound 0.01 µM,0.943
same,relative viability,LXF-289; first compound 0.03162 µM,0.962
same,relative viability,LXF-289; first compound 0.1 µM,0.949
same,relative viability,LXF-289; first compound 0.3162 µM,1
same,relative viability,LXF-289; first compound 1 µM,1.03
same,relative viability,NCI-H1651; first compound 0.01 µM,1.16
same,relative viability,NCI-H1651; first compound 0.03162 µM,0.964
same,relative viability,NCI-H1651; first compound 0.1 µM,0.922
same,relative viability,NCI-H1651; first compound 0.3162 µM,0.855
same,relative viability,NCI-H1651; first compound 1 µM,0.283
same,relative viability,PC-3 [JPC-3]; first compound 0.01 µM,0.776
same,relative viability,PC-3 [JPC-3]; first compound 0.03162 µM,0.824
same,relative viability,PC-3 [JPC-3]; first compound 0.1 µM,0.802
same,relative viability,PC-3 [JPC-3]; first compound 0.3162 µM,0.847
same,relative viability,PC-3 [JPC-3]; first compound 1 µM,0.823
same,relative viability,LU99A; first compound 0.01 µM,0.81
same,relative viability,LU99A; first compound 0.03162 µM,0.869
same,relative viability,LU99A; first compound 0.1 µM,0.718
same,relative viability,LU99A; first compound 0.3162 µM,0.665
same,relative viability,LU99A; first compound 1 µM,0.514
same,relative viability,HCC-15; first compound 0.01 µM,0.663
same,relative viability,HCC-15; first compound 0.03162 µM,0.708
same,relative viability,HCC-15; first compound 0.1 µM,0.771
same,relative viability,HCC-15; first compound 0.3162 µM,0.728
same,relative viability,HCC-15; first compound 1 µM,0.789
same,relative viability,BEN; first compound 0.01 µM,0.0635
same,relative viability,BEN; first compound 0.03162 µM,0.0616
same,relative viability,BEN; first compound 0.1 µM,0.0641
same,relative viability,BEN; first compound 0.3162 µM,0.0656
same,relative viability,BEN; first compound 1 µM,0.0695
same,relative viability,NCI-H838; first compound 0.01 µM,1.19
same,relative viability,NCI-H838; first compound 0.03162 µM,1.15
same,relative viability,NCI-H838; first compound 0.1 µM,1.09
same,relative viability,NCI-H838; first compound 0.3162 µM,1.03
same,relative viability,NCI-H838; first compound 1 µM,0.576
same,relative viability,SK-MES-1; first compound 0.01 µM,1.24
same,relative viability,SK-MES-1; first compound 0.03162 µM,1.38
